What was measured:
E. coli BL21 = test: Growth and GFPuv expression in E. coli BL21 (DE3), shake flask batch culture in complex medium; type: cell-based, Escherichia coli; conditions: additive 5 mM, 20 h after induction
Procedure: (§1) The measurement of GFP expression by whole cell fluorescence measurements follows the procedure of Scholz et al. (Eur. J. Biochem., 2000,267, 1565-1570). Frozen cell pellets are thawed, resuspended in 1 mL PBS [NaCl (8 g/L), KCl (0.2), of Na2HPO4 (1.44), KH2PO4 (0.24), adjusted to pH 7.4] and subsequently diluted to an optical density of 0.1. GFP fluorescence of whole cells is measured in a Eclipse Fluorometer (Varian) with an excitation wavelength of 400 nm and an emission wavelength of 512 nm. Specific relative fluorescence [RFU/OD600] is calculated by dividing the relative fluorescence emmision units by the optical density of the suspension at 600 nm.
Precultures are prepared in 250 mL baffled shake flasks containing 25 mL sterile LB medium [Tryptone (10.0 g/L), yeast extract (5.0), NaCl (10.0), kanamycin 30 (mg/L); adjusted to pH 7.0 with NaOH]. Cultures are inoculated with 250 μL of a glycerol stock stored at −80° C. of E. coli BL21 [Novagen, Madison, USA; Genotype: E ompT hsdSB (rB^− mB^−) gal dcm (DE3)] harboring the plasmid pET28a-GFPuv which is obtained by inserting the GFPuv gene (isolated from pBAD-GFPuv through PCR) into the EcoRI site of pET28a (Novagen, Madison, USA) which placed the GFPuv gene under the control of the T7/Lac promotor system. Precultures are incubated at 37° C. for 10-12 h.
Experimental cultures are performed in a volume of 25 mL of the above described medium in 250 mL baffled shake flasks. Stabilizers are added to a final concentration of 5 mM as indicated from sterile stock solutions. Cultures are started by inoculating with the preculture to an OD600 at 600 nm of 0.25. Samples are taken for OD600 measurements. Cultures are induced by adding IPTG (Isopropyl-β-D-thiogalactoside) to a final concentration of 0.5 mM when the OD600 reaches 0.5. Samples of 1 mL are taken after induction for OD600 reading and GFP quantification. For GFP quantification 1 mL of the culture is harvested after 2-4 h and after 20 h after induction. Cells are collected by centrifugation at 16 000 g and the cell pellet is stored at −20° C. for further analysis. Analysis of in vivo GFP fluorescence is performed by the method described in Example 1.

E. coli JM109 = test: Growth and GFPuv expression in E. coli JM109, shake flask cultivation in mineral medium; type: cell-based, Escherichia coli; conditions: Experiment 2, additive 5 mM, 20 h, mean of two
Procedure: Precultures are prepared in 250 mL baffled shake flasks containing 25 mL sterile mineral medium [macronutrients in g/L: Glycerol (25), (NH4)2-citrate (1.0), Na2HPO4 2H2O (9.0), KH2PO4 (1.82), NH4Cl (1.52), MgSO4 (0.12), (NH4)2SO4 (0.6); Ampicillin ([…]); micronutrients in mg/L: Na2-EDTA (8.4), thiamine (4.5), Fe(III) citrate (12.5), Na2MoO4 2×H2O (2.5), H3BO3 (3), CoCl2 6×H2O (2.5), CuSO4 5×H2O (0.45) MnCl24×H2O (15), ZnCl2 (8) adjusted to pH 7.0]. Cultures are inoculated with 250 μL of a glycerol stock stored at −80° C. of E. coli JM109 (Promega Inc, Wallisellen, C H; Genotype: endA1, recA1, gyrA96, thi, hsdR17 (rk^−, mk^+), re/A1, supE44, Δ(lac-proAB), [F″ traD36, proAB, laql^qZΔM15]) harboring the plasmid pBAD-GFPuv (Biorad Inc., Reinach, C H; Genbank U62637.1, containing the GFPuv gene under control of the ara promoter; GFP=Green Fluorescent Protein). Precultures are incubated at 37° C. for 10-12 h.
Experimental cultures are performed in a volume of 25 mL of the above described medium in 250 mL baffled shake flasks. Stabilizers according to the invention are added to a final concentration of 5 mM as indicated from sterile stock solutions. Cultures are started by inoculating with the preculture to an optical density at 600 nm (OD600) of 0.25. Growth of the culture is monitored by reading optical density at 600 nm. Cultures are induced by adding L-arabinose to a final concentration of 0.2% (w/v) when the OD600 reaches 0.5. Samples of 1 mL are taken 6 and 20 h after induction for OD600 reading and GFP quantification. For GFP quantification 1 mL of the culture is harvested after 2-4 h and after 20 h after induction. Cells are collected by centrifugation at 16 000 g and the cell pellet is stored at −20° C. for further analysis.
as §1

CC1(C)CC(O)CC(C)(C)N1[O] [4-Hydroxy-2,2,6,6-tetramethylpiperidin-1-oxyl]
Growth (Final OD600) (E. coli BL21; Experiment 1, control 3.4): 2.4 OD600 | GFP expression (Relative fluorescence unit*OD600^−1) (E. coli BL21; Experiment 1, control 584): 1909 Relative fluorescence unit*OD600^−1 | Growth (Final OD600) (E. coli BL21; Experiment 2, control 3.3): 2.61 OD600 | GFP expression (Relative fluorescence unit*OD600^−1) (E. coli BL21; Experiment 2, control 195): 319 Relative fluorescence unit*OD600^−1 | Growth (Final OD600) (E. coli JM109; control 11.0): 9.5 OD600 | GFP expression (Relative fluorescence unit*OD600^−1) (E. coli JM109; control 1423): 7276 Relative fluorescence unit*OD600^−1

— patent publication US8859235B2, “Methods in cell cultures, and related inventions, employing certain additives” (priority 2009, dated 2014)
